Data taken from patent US9567301B2, “Pyrrol-1-yl benzoic acid derivatives useful as myc inhibitors” (Whitehead Institute for Biomedical Research, priority 2012, dated 2017).
Read-outs that look alike come from different tables or passages of the source.

Experiments:
Jurkat cells = assay: Cell viability assay (ATPlite), Jurkat; format: cell-based, human; settings: class symbols, NA: not active under assay conditions
Experimental: (§1) This assay was used for the H2171 and MM1S cell data shown in Table 2, and for the Jurkat (an immortalized line of human T lymphocyte cells), Ly1 (OCI-Ly1 human non-Hodgkin lymphoma cell line), Ly4 (OCI-Ly4 human non-Hodgkin lymphoma cell line), H2172 (NCI-H2172 human non-small cell lung cancer cell line), and CA-46 (a human Burkitt's lymphoma cell line) cell data shown in Table 3 and FIG. 12. Cells were counted and adjusted to 60,000 cells/mL. Using a Biotek EL406, 50 μL of cells are media were distributed into 384 well white plates from Thermo. Immediately after plating, compound in DMSO was distributed to plates. For large plate sets, cells were returned to 37° C. incubator while not in use.
(§2) Compounds were added to plates using a 100 nL 384 well pin transfer manifold on a Janus workstation. Stocks were arrayed in 10 point quadruplicate dose response in DMSO stock in 384 well Greiner compound plates. After addition of compound, plates were incubated for three days in a 37° C. incubator.
(§3) Cell viability was read out using ATPlite from Perkin Elmer. Plates were removed from the incubator and brought to room temperature prior to use. Lyophilized powder was resuspended in lysis buffer and diluted 1:2 with DI water. 25 μL of this solution was added to each well using the Biotek liquid handler. Plates were sealed with adherent aluminum seals prior to vortexing and spinning down at 1000 g for 1 minute. Plates were incubated for 15 minutes at room temperature before signal was read on an Envision Plate Reader.

c-Myc/Max/Ebox DNA = c-Myc/Max/Ebox DNA (Homo sapiens, UniProt P01106); assay: c-Myc/Max/Ebox DNA AlphaScreen assay; format: binding; design: An exemplary assay uses full-length human c-Myc and Max proteins; his6 (cleaved yes); made in house
Method in brief: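 Proximity read-out of Myc–Max–DNA complex formation in 50 mM HEPES pH 8.0 with 500 μM DTT. Compounds contact tag-free c-Myc (25 nM), Ebox oligo (10 nM) and acceptor beads first. His6-Max (1.25 nM) with donor beads follows, then 2 h incubation in low light with DMSO ≤2% v/v.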

H2171 cells = assay: Cell viability assay (ATPlite), H2171; format: cell-based, human; settings: cell viability, three days, ATPlite, NA: inactive under assay conditions
Method in brief: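 Cells seeded at 60,000 cells/mL and dosed immediately by pin transfer in 10-point quadruplicate dose response from DMSO stocks. After three days at 37 °C, viability was read by ATPlite luminescence after 15 min at room temperature.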

MM1S cells = assay: Cell viability assay (ATPlite), MM1S; format: cell-based, human; settings: cell viability, three days, ATPlite, NA: inactive under assay conditions
Experimental: as §1, §2, §3

MITF/MITF/Ebox DNA = target: T1, MITF/MITF/Ebox DNA (Homo sapiens, UniProt O75030); assay: Gelshift assay, MITF/MITF/Ebox DNA complex formation; format: binding; settings: relative to DMSO at 2.5 µM (FIG. 9)
T1 sequence (O75030 1-526): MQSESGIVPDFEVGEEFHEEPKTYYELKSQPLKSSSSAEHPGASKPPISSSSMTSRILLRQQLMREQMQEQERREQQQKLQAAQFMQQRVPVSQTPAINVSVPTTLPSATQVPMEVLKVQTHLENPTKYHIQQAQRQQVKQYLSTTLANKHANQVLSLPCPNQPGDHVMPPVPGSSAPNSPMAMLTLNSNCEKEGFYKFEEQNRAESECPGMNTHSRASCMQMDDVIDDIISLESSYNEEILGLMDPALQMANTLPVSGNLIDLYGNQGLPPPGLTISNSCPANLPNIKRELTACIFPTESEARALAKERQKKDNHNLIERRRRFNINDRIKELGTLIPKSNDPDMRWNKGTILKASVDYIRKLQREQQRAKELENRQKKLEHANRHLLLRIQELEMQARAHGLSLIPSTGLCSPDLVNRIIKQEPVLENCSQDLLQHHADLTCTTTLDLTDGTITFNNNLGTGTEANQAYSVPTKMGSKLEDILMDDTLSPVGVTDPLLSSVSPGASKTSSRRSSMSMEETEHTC
Experimental: Compounds tested at 2.5 μM for their inhibitory activity against c-Myc/Max/Ebox DNA, Max/Max/Ebox DNA and MITF/MITF/Ebox DNA complex formation using gelshift assays.
AlphaScreen hits can be validated using orthogonal biochemical assays such as a gelshift assay (also called an electrophoretic mobility shift assay) with purified components or cellular lysates. FIG. 5 (left) illustrates how the AlphaScreen hit 63 was validated using a gelshift assay with purified c-Myc, Max and Ebox DNA. […] Compounds and analogs were then examined for potency and selectivity against structurally similar transcription factor:DNA complexes, such as Max/Max/Ebox DNA and MITF/MITF/Ebox DNA. Data in FIG. 9 show how analogs can be tested for potency against structurally similar transcription factors and how medicinal chemistry optimization can drive potency and selectivity against different transcription factor:DNA complexes. […] The selectivity among structurally similar transcription factors can also provide insights into compound mechanism of action. […] Cellular assays can compliment the biochemical analyses to measure the cellular potency of compounds to induce cellular phenotypes expected as a result of loss of transcription factor function. This includes gene expression analysis, chromatin immunoprecipitation (ChIP) analysis, cellular proliferation analysis and cell state analysis. Gene expression analysis can be performed using qRT-PCR, Nanostring technology, microarray technology, or RNA-seq technology to study transcript changes following treatment with compound. ChIP analysis can be performed on the factor of interest to study if compound treatment alters its genomic occupancy. Cellular proliferation and cell state analysis can indicate if the compound alters cell cycle progression or cellular identity. Thus, the approach using biochemical and cellular assays with large chemical libraries or focused libraries of hits identified in high throughput screens can serve as a platform to develop inhibitors of transcription factor function.

[1] = class symbols, NA: not active under assay conditions, read-out: Myc/Max IC50
[2] = c-Myc/Max/Ebox DNA AlphaScreen, NA: inactive under assay conditions, read-out: Biochemical IC50

Chain of c-Myc/Max/Ebox DNA (P01106 16-454): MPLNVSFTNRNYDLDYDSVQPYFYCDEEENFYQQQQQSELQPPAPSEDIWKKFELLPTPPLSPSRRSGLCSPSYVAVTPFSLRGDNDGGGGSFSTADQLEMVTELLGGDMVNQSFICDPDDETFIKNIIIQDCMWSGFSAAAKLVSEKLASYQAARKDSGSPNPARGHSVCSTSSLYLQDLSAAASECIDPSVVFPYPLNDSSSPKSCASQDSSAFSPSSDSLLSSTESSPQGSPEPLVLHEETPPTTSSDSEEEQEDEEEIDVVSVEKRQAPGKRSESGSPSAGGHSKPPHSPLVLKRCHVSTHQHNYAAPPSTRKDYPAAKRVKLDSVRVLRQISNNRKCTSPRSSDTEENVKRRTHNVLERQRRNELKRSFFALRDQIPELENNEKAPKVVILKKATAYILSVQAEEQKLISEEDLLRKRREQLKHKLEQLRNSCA

SMILES	EC50 (Jurkat cells; Homo sapiens, Jurkat) [µM]	IC50 (c-Myc/Max/Ebox DNA; [1]) [µM]	further results
Cc1ccc(C)n1-c1cc(Br)ccc1C(=O)NS(C)(=O)=O [Compound 214]	10 to 100	≥ 100	–
Cc1ccc(C)n1-c1ccccc1C(=O)NS(=O)(=O)C1CC1 [Compound 190]	10 to 100	≥ 100	–
Cc1ccc(C)n1-c1cc(C(=O)N2CCCC(c3ccc(C(=O)O)cc3)C2)ccc1C(=O)O (centres unmarked) [Compound 164]	≥ 100	1 to 10	–
Cc1ccc(C)n1-c1cc(C(=O)N2C[C@H](c3ccccc3)[C@@H](O)C2)ccc1C(=O)O [Compound 217]	≥ 100	10 to 100	–
Cc1ncc(CO)c(/C=N/NC(=O)c2ccc(C(=O)O)c(-n3c(C)ccc3C)c2)c1O [Compound 80]	≥ 100	1 to 10	EC50 (H2171 cells; Homo sapiens, NCI-H2171, 72 h): 400 µM
Cc1ccc(C)n1-c1cccnc1C(=O)O [Compound 181]	≥ 100	1 to 10	–
Cc1ccc(C)n1-c1cc(C(=O)N2CCC=C(c3cccc(C(=O)O)c3)C2)ccc1C(=O)O [Compound 204]	10 to 100	10 to 100	–
Cc1ccc(C)n1-c1cc(C(=O)N2CCCC(c3ccc(CC(=O)O)cc3)C2)ccc1C(=O)O (centres unmarked) [Compound 208]	10 to 100	1 to 10	–
Cc1ccc(C)n1-c1cc(C(=O)N2CCCC(c3ccccc3O)C2)ccc1C(=O)O (centres unmarked) [Compound 207]	≥ 100	10 to 100	–
Cc1ccc(C)n1-c1cc(C(=O)N2CCCC(c3ccc(C(=O)NS(C)(=O)=O)cc3)C2)ccc1C(=O)O (centres unmarked) [Compound 205]	≥ 100	1 to 10	–
Cc1ccc(C)n1-c1cc(-c2nnc(-c3ccc(O)c(O)c3O)o2)ccc1C(=O)O [Compound 224]	< 10	< 1	–
Cc1ccc(C)n1-c1cc(C(=O)O)ccc1C(=O)NS(C)(=O)=O [Compound 223]	≥ 100	10 to 100	–
Cc1ccc(C)n1-c1ncccc1C(=O)O [Compound 134]	≥ 100	1 to 10	–
COC(=O)c1ccc(C(=O)NN)cc1-n1c(C)ccc1C [Compound 211]	≥ 100	≥ 100	–
Cc1ccc(C)n1-c1cc(-c2nnc(-c3cccc(C(=O)O)c3)o2)ccc1C(=O)O [Compound 167]	10 to 100	10 to 100	–
Cc1ccc(C)n1-c1cc(C(=O)N2CCN(c3ccccc3C(=O)O)CC2)ccc1C(=O)O [Compound 198]	≥ 100	1 to 10	–
COc1ccccc1C(=O)N1CCN(C(=O)c2ccc(C(=O)O)c(-n3c(C)ccc3C)c2)CC1 [Compound 213]	≥ 100	≥ 100	–
Cc1ccc(C)n1-c1cc(C(=O)N2CCCC(c3ccccc3C(=O)O)C2)ccc1C(=O)O (centres unmarked) [Compound 203]	≥ 100	< 1	–
Cc1ccc(C)n1-c1cc(C(=O)N2CCCC(c3ccc(C(=O)O)cc3)C2)ccc1C(=O)O (centres unmarked) [Compound 209]	–	10 to 100	EC50 (Jurkat cells): ≥ 100 µM

SMILES	EC50 (Jurkat cells; Homo sapiens, Jurkat) [µM]	IC50 (c-Myc/Max/Ebox DNA; [1]) [µM]	further results
Cc1ccc(C)n1-c1cc(CNCc2ccc(C(=O)O)cc2)ccc1C(=O)O [Compound 193]	≥ 100	< 1	–
COc1cccc(C(=O)N2CCN(C(=O)c3ccc(C(=O)O)c(-n4c(C)ccc4C)c3)CC2)c1 [Compound 220]	≥ 100	10 to 100	–
Cc1ccc(C)n1-c1cc(C(=O)N2CCCC(c3ccccc3)C2)ccc1C(=O)O (centres unmarked) [Compound 188]	≥ 100	10 to 100	–
Cc1cnc(C(=O)N2CCN(C(=O)c3ccc(C(=O)O)c(-n4c(C)ccc4C)c3)CC2)cn1 [Compound 215]	≥ 100	10 to 100	–
Cc1ccc(C)n1-c1cc(C(=O)N2CCN(c3cccc(O)c3)CC2)ccc1C(=O)O [Compound 182]	≥ 100	1 to 10	–
Cc1cccc(C2CCCN(C(=O)c3ccc(C(=O)O)c(-n4c(C)ccc4C)c3)C2)c1 (centres unmarked) [Compound 212]	10 to 100	10 to 100	–
Cc1ccc(C)n1-c1ccccc1C(=O)O [Compound 1]	≥ 100	10 to 100	EC50 (H2171 cells): 93.5 µM; EC50 (MM1S cells): 132 µM
Cc1ccc(C)n1-c1cc(C(=O)N/N=C/c2ccc(-c3nnn[nH]3)cc2)ccc1C(=O)O [Compound 92]	–	–	EC50 (MM1S cells; Homo sapiens, MM1.S, 72 h): 731 µM; MITF/MITF/Ebox DNA complex formation (MITF/MITF/Ebox DNA): most potent of the compounds tested; IC50 (c-Myc/Max/Ebox DNA; [2]): 1.66 µM
Cc1ccc(C)n1-c1cc(-c2nnc(-c3ccc(OCc4ccccc4)c(OCc4ccccc4)c3OCc3ccccc3)o2)ccc1C(=O)O [Compound 219]	< 10	1 to 10	–
Cc1ccc(C)n1-c1ccccc1C(=O)NS(C)(=O)=O [Compound 180]	≥ 100	10 to 100	–
Cc1ccc(C)n1-c1cc(CNCc2cccc(C(=O)O)c2)ccc1C(=O)O [Compound 196]	≥ 100	1 to 10	–
COc1cccc([C@H]2CN(C(=O)c3ccc(C(=O)O)c(-n4c(C)ccc4C)c3)C[C@@H]2O)c1 [Compound 225]	10 to 100	≥ 100	–
Cc1ccc(C)n1-c1ccccc1C(=O)NS(=O)(=O)c1ccccc1 [Compound 191]	10 to 100	≥ 100	–
COc1ccc(C(=O)N2CCN(C(=O)c3ccc(C(=O)O)c(-n4c(C)ccc4C)c3)CC2)cc1 [Compound 218]	10 to 100	10 to 100	–
Cc1ccc(C)n1-c1cc(C(=O)N2CCCC(c3cccc(C(=O)O)c3)C2)ccc1C(=O)O (centres unmarked) [Compound 169]	≥ 100	1 to 10	–
Cc1ccc(C)n1-c1cc(C(=O)N2CCCC(c3ccc(C(=O)O)cc3)C2)ccc1C(=O)NS(C)(=O)=O (centres unmarked) [Compound 221]	≥ 100	10 to 100	–
Cc1ccc(C)n1-c1ccccc1-c1nnn[nH]1 [Compound 162]	≥ 100	≥ 100	EC50 (H2171 cells; Homo sapiens, NCI-H2171, 72 h): 24.2 µM; EC50 (MM1S cells; Homo sapiens, MM1.S, 72 h): 66 µM; IC50 (c-Myc/Max/Ebox DNA; [2]): 151 µM
Cc1ccccc1N1CCN(C(=O)c2ccc(C(=O)O)c(-n3c(C)ccc3C)c2)CC1 [Compound 179]	≥ 100	10 to 100	–
COC(=O)c1ccc(C(=O)NNC(=O)OC(C)(C)C)cc1-n1c(C)ccc1C [Compound 184]	≥ 100	≥ 100	–
